Measured values from patent US20260207777A1, “IMPROVED PEPTIDE INHIBITORS OF P53 BINDING PROTEIN 53BP1” (KAMAU THERAPEUTICS, INC., priority 2022, published 2026).

Legend:
CD34+ HSPCs [1] = assay: editing of CD34+ HSPCs with purified i53 variant proteins and HBB-UBC-GFP AAV donor; flow cytometry; format: cell-based, human; settings: for increase of % HDR over DM: HBB-UBC-GFP AAV MOI 1250, protein 0.4 mg/mL, GFP integration in live cells, L67R/L67H value is the average of both; for increase in levels of GFP integration over control edited without protein: HBB-UBC-GFP AAV MOI 2500, average across all concentrations tested (0.1-0.8 mg/mL) and of L67R and L67H
Protocol: (§1) Chemically-modified single guide RNAs (sgRNAs) used to edit CD34+ HSPCs at the HBB locus were purchased from Synthego. The sgRNA sequences were modified by adding 2′-O-methyl-3′-phosphorothioate at the three terminal nucleotides of the 5′ and 3′ ends. The target sequence for the HBB sgRNA is as follows: HBB: 5′[…]-3′ (SEQ ID NO: 74). Cas9 protein (SpyFi Cas9) was purchased from Aldevron. The RNPs were complexed at a Cas9:sgRNA molar ratio of 1:2.5 at 25° C. for 10-15 min prior to electroporation. Cells were collected, counted, and pelleted at 180 g×7 min. The cell pellets were resuspended in Maxcyte buffer with complexed RNPs and electroporated using a Maxcyte EXPERT ATx Nucleofector. After electroporation cells were plated at 3.5×10^5 cells/mL in media supplemented with cytokines and the desired AAV donor added at 5.0×10^2-2.5×10^4 vector genomes/cell. 24 h after nucleofection, cells were spun down, washed once with media, and seeded into AAV-free media at a density of 3.5×10^5 cells/mL.
(§2) CD34+ HPSCs were edited with protein variants 3 days post thaw and were harvested 2 days post nucleofection for NGS analysis or 3-5 days post nucleofection for GFP expression analysis. Editing reactions with proteins at a given concentration were repeated in duplicate or triplicate (either using the same CD34+ HSPC donor or across multiple donors).
Rates of targeted integration of the HBB UBC GFP donor were measured using a Beckman Coulter CytoFLEX. DAPI (Miltenyi Biotec) was used to discriminate live and dead cells. Flow cytometry data were analyzed using FlowJo 10 software.

CD34+ HSPCs [2] = assay: validation of individual i53 variants via lentiviral expression; GFP integration by flow cytometry (HBB-UBC-GFP AAV); format: cell-based, human; settings: HBB-UBC-GFP AAV MOI=1250
From the text: Sequences of individual i53 variants of interest were cloned into the lentiviral-based expression plasmid described above. Hits were validated either as pooled “validation libraries” (variant and control plasmids manually mixed to generate a pool of 5-25 variants) or individually. Lentivirus generated from these plasmids was used to transduce CD34+ HSPC cells at MOIs of 0.5-1 at day 1 post thaw. […] Cells transduced with pooled validation libraries were edited in triplicate or quadruplet; cells transduced with individual variants were edited in duplicate.
For individual testing of variants, rates of integration of the HBB-UBC-GFP donor were measured using a Beckman Coulter CytoFLEX. DAPI (Miltenyi Biotec) was used to discriminate live and dead cells. mCherry expression was used to differentiate transduced cells from untransduced cells and rates of GFP integration were compared between the two populations to quantify the impact of lentiviral-based variant expression on HDR rates. Flow cytometry data were analyzed using FlowJo 10 software.

CD34+ HSPCs [3] = assay: editing of CD34+ HSPCs with purified i53 variant proteins and HBB-SNP AAV donor; NGS of editing outcomes; format: cell-based, human; settings: for increase of % HDR over control edited without protein: FIG. 13, average across all concentrations (0.1, 0.2, 0.4 mg/mL) and of L67R and L67H; for increase in levels of HDR corrected alleles over DM / impact on % NHEJ: protein 0.4 mg/mL; for increase in levels of HDR corrected alleles over DM: L67R/L67H value is the average of both; for levels of % HDR corrected alleles: HBB-SNP AAV MOI 312.5 with protein 0.4 mg/mL, compared with 2500 MOI alone (8x the amount of AAV); for impact on % NHEJ: HBB-SNP AAV MOIs 312.5 and 2500
Protocol: as §1, §2
24 h after nucleofection, cells were spun down, washed with media, and seeded into AAV and DNAPKi-free media at a density of 3.5×10^5 cells/mL.
The frequency of homology directed repair (HDR) and other editing outcomes at HBB were measured using Next Generation Sequencing (NGS). An NGS assay was developed to determine the frequency of at the HBB locus by quantifying the total number of alleles that have been either: (1) not edited (% WT), (2) changed by HDR to incorporate sequence differences present in the AAV repair template (% HR), or (3) mutated during the genome correction process resulting in a gene that produces mutant β-globin (% INDELs).
For this assay, genomic DNA was harvested from cells using a Quick-DNA 96 Plus Kit (Zymo Research). The DNA concentration was measured using a Qubit 1×dsDNA BR assay kit (ThermoFisher). Purified genomic DNA was then used to amplify the HBB locus via polymerase chain reaction (PCR). The PCR products were diluted using nuclease-free water to serve as the template DNA for targeted NGS library prep. A second PCR with primers carrying partial Illumina adapters was performed to amplify a 142 base pair sequence that includes the region of the HBB locus that is to be corrected during the genome correction process. The PCR products were diluted again to serve as templates in a third PCR reaction using Nextera XT index primers. This third PCR reaction was used to assign unique identifiers to each sample and to add the full length adapter sequences necessary for Illumina sequencing. The size of the PCR products was assessed on an Agilent BioAnalyzer. PCR products were then pooled, purified using a Qiagen PCR purification kit, and quantified using PicoGreen in order to ready the PCR products for sequencing.
Based on the PicoGreen concentration, the library of pooled PCR products was diluted to a final concentration of 4 nM. Sequencing was performed on a MiSeq system using an Illumina MiSeq sequencing reagent kit (V2, 300 cycles). A 10% PhiX control library was added to the sample library to improve sequence diversity and to allow for error rate measurements. The library was denatured and loaded at […] onto the sequencing reagent cartridge. The sequencing entails paired-end 150 base pair reads and dual indexing reads. The sequencing data was demultiplexed based on the sample indexes provided and FASTQ files for each sample are generated.
The FASTQ files were processed using the CRISPResso2 pipeline^3. The data was reported as % WT, % corrected by HR, and % INDELs. […]

53BP1 Tudor domain = 53BP1 Tudor domain (Homo sapiens, UniProt Q12888); assay: Bio-Layer Interferometry (BLI) with immobilized 53BP1 Tudor domain; settings: biotin-labeled immobilized 53BP1 Tudor domain; 1:1 binding model
53BP1 Tudor domain, sequence (Q12888 1484-1603): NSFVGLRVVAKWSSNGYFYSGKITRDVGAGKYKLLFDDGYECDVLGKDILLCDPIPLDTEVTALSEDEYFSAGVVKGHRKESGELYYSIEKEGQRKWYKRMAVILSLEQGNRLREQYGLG
Protocol: Data were collected using an Octet R8 system (Sartorius). Purified 53BP1 Tudor domain was labeled at exposed primary amine groups with NHS-biotin using ChromaLINK NHS-Biotin protein labeling kit (Vector Laboratories). 1 equivalent of chromalink biotin was incubated with the 53BP1 Tudor domain for 2 hours and buffer exchanged into fresh PBS. Labeling efficiency was calculated to be approximately 1 biotin per molecule of 53BP1 Tudor domain. Octet SA Biosensor tips (Sartorius) were incubated with biotin-labeled 53BP1 Tudor domain (ligand) for 60-80 seconds. The labeled tip was then dipped in 1× binding buffer (Sartorius) for 60 seconds to remove excess ligand and achieve baseline. […] A range of analyte concentrations were tested from a highest to lowest concentration in nM (i.e. 200, 100, 50, 25, 12.5, 6.25, 3.125). The tips were then introduced to 1× binding buffer for 5 minutes and the response was continuously monitored to detect dissociation. A dissociation constant (KD) was calculated using a 1:1 binding model and the on-rate (ka) and off-rate […] were calculated as a change in response (nm) over time (sec).

CD34+ HSPCs [4] = assay: DNA damage response (DDR) markers yH2AX and p21 in edited HSPCs; settings: protein 0.8 mg/mL; any given MOI (78.125-2500); 24 h post nucleofection
Protocol: In order to quantify the induction of the DNA damage response (DDR) pathways, a subset of edited cells was harvested 24 h post nucleofection to quantify DDR markers p21 and yH2AX^5.

Substance | increase of % HDR over DM (CD34+ HSPCs [1]) | increase in levels of GFP integration over control edited without protein (CD34+ HSPCs [1]) | rates of GFP integration in mCherry+ live cells in relation to mCherry- control cells, compared with i53 and DM (CD34+ HSPCs [2]) | increase of % HDR over control edited without protein (CD34+ HSPCs [3]; HBB-SNP AAV MOI 312.5) | increase of % HDR over control edited without protein (CD34+ HSPCs [3]; HBB-SNP AAV MOI 2500) | increase in levels of HDR corrected alleles over DM (CD34+ HSPCs [3]; HBB-SNP AAV MOI 312.5) | levels of % HDR corrected alleles (CD34+ HSPCs [3]) | increase in levels of HDR corrected alleles over DM (CD34+ HSPCs [3]; HBB-SNP AAV MOI 2500) | impact on % NHEJ (CD34+ HSPCs [3]) | rate of binding compared to parent i53 (53BP1 Tudor domain) | p21 response (CD34+ HSPCs [4]) | yH2AX response (CD34+ HSPCs [4])
L67H: i53 variant with His at position 67 | 69% | 70% | higher rates of GFP integration | 62% | 27% | 56% | approaching those using 2500 MOI alone | 44% | more significant impact on % NHEJ relative to i53 | measurably increased rate of binding compared to parent i53 |  | 
L67R: i53 variant with Arg at position 67 | 69% | 70% | higher rates of GFP integration | 62% | 27% | 56% | approaching those using 2500 MOI alone | 44% | more significant impact on % NHEJ relative to i53 | measurably increased rate of binding compared to parent i53 | not found to significantly increase | not found to significantly increase
